Test results: US12037324B2, “Biarylmethyl heterocycles” (Université de Montréal, priority 2016, dated 2024)
Like-named read-outs stand apart in the source and are kept apart here.

Key:
Assay type in all cases: cell-based
AGTR1 = molecular target: T1, AGTR1 (Homo sapiens, UniProt P30556); experiment: DiscoveRx β-arrestin2 recruitment assay (enzyme complementation, Pathunter CHO-K1 AGTR1 β-arrestin cell line)
T1 construct: host or cells: Pathunter CHO-K1 AGTR1 β-arrestin cell line (CHO-K1)
T1 sequence (P30556 1-359): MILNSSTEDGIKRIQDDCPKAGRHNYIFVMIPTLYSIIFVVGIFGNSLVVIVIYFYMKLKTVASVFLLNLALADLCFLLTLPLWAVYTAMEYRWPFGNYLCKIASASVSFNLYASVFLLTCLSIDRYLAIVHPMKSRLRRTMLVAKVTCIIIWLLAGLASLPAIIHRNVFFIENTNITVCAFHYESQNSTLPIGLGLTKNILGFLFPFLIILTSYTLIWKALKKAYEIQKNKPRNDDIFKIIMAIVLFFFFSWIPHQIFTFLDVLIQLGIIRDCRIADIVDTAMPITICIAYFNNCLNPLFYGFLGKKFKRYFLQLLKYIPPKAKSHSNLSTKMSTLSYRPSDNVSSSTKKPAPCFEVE
How it was run: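 CHO-K1 cells expressing AGTR1 with β-arrestin2 enzyme-complementation reporter, plated 14-16 h ahead in 1% serum medium, then exposed to compounds for 90 min at 37° C. Chemiluminescence read after 1 h detection. EC50 (agonist) or IC50 (antagonist) from 4-parameter logistic fit; activity as percentage of All maximal effect.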

hAT1R [1] = molecular target: T2, hAT1R (Homo sapiens, UniProt P30556); experiment: BRET Gq biosensor assay, agonist response, HEK293 cells; settings: section of the 42nd table directly before the BRET P63 section
T2 sequence (P30556 1-359): T1 sequence (P30556 1-359)
How it was run: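 HEK293 cells co-transfected with signal-peptide-optimized hAT1R plus Gαq-Rluc, Gβ1 and GFP-Gγ1, assayed 48 h later in Tyrode's buffer pH 7.4. Coelenterazine (2 μM final) added, then compound; BRET2 (515/410 nm) read after 5 min at room temperature. EC50 by 4-parameter fit, normalized to unstimulated (0%) and maximal AngII (100%).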

hAT1R [2] = molecular target: T2, hAT1R; experiment: BRET β-arrestin2 biosensor assay, higher receptor expression (hAT1R 5 ng/well), HEK293 cells; settings: for EC50: High AT1R Expression
[3] = DiscoveRx β-arrestin2 recruitment
[4] = DiscoveRx β-arrestin2 recruitment, maximal response

| SMILES | DiscoveRx β-arrestin2 Ymax (%) (AGTR1; [3]) | EC50 (AGTR1; [3]) | EC50 (hAT1R [1]) | BRET β-Arrestin2 High AT1R Expression Ymax (%) (hAT1R [2]) | EC50 (hAT1R [2]) | DiscoveRx β-arrestin2 Ymax (%) (AGTR1; [4]) | EC50 (AGTR1) |
| --- | --- | --- | --- | --- | --- | --- | --- |
| CCCCC(=O)N(Cc1ccc(-c2cc(-c3cc(F)cc(F)c3)ccc2-c2nn[nH]n2)cc1)[C@H](C(=O)O)C(C)C [Example 438, (S)-2-(N-((3″,5″-Difluoro-6′-(2H-tetrazol-5-yl)-[1,1′:3′,1″-terphenyl]-4-yl)methyl)pentanamido)-3-methylbutanoic acid] | 41.7% | 20.4 nM | 718 nM | 74.6% | 34.8 nM |  |  |
| CCCc1nc(CC)c(C(=O)O)n1Cc1ccc(-c2cc(-c3ccccc3)ccc2C(=O)O)cc1 [Example 400, 1-((6′-carboxy-[1,1′:3′,1″-terphenyl]-4-yl)methyl)-4-ethyl-2-propyl-1H-imidazole-5-carboxylic acid] |  | 150 nM | 892 nM | 88.3% | 172 nM | 40.4% |  |
| CCCCc1ncc(C(=O)NC(C)(C)C)n1Cc1ccc(-c2cc(-c3ccccc3)ccc2-c2nn[nH]n2)cc1 [Example 352] |  | 234 nM | 1180 nM | 62.2% | 290 nM | 35.7% |  |
| CCOc1nc2cccc(C(=O)O)c2n1Cc1ccc(-c2cc(N3CCCC(F)(F)C3)ccc2C(=O)O)cc1 [Example 315] |  | 242 nM | > 100000 nM | 29.1% | 1840 nM | 21.5% |  |
| CCCCC(=O)N(Cc1ccc(-c2cc(Oc3cccnc3)ccc2-c2nn[nH]n2)cc1)C1(C(=O)O)CCCCC1 [Example 286] |  | 113 nM | 302 nM | 45.3% | 47.1 nM | 35.8% |  |
| CCCCc1ncc(C(=O)Nc2ccc(C)nn2)n1Cc1ccc(-c2cc(-c3ccccc3)ccc2-c2nn[nH]n2)cc1 [Example 376] |  | 18.5 nM | 123 nM | 44.2% | 45.5 nM | 22.1% |  |
| CCOc1nc2cccc(C(=O)O)c2n1Cc1ccc(-c2cc(-c3cccnc3OC)ccc2-c2noc(=O)[nH]2)cc1 [Example 329] |  | 7.1 nM | 31.5 nM | 91.4% | 2.8 nM | 77.6% |  |
| CCCCC(=O)N(Cc1ccc(-c2cc(-c3ccc4ncccc4c3)ccc2-c2nn[nH]n2)cc1)C1(C(=O)O)CCCCC1 [Example 292] |  | 177 nM | > 100000 nM | 36.5% | 72.2 nM | 32.1% |  |
| CCCCC1=NC2(CCCC2)C(=O)N1Cc1ccc(-c2cc(-c3ccccc3)ccc2-c2nn[nH]n2)cn1 [Example 452, 3-((5-(4-(2H-Tetrazol-5-yl)-[1,1′-biphenyl]-3-yl)pyridin-2-yl)methyl)-2-butyl-1,3-diazaspiro[4.4]non-1-en-4-one] | 36.1% | 8.1 nM | 44.8 nM | 84.6% | 33.8 nM |  |  |
| CCCCc1ncc(C(=O)NCc2cccnn2)n1Cc1ccc(-c2cc(-c3ccccc3)ccc2-c2nn[nH]n2)cc1 [Example 355] |  | 8.6 nM | > 1000 nM | 92.5% | 23.3 nM | 42.4% |  |
| CCCCC(=O)N(Cc1ccc(-c2cc(N3CC(C)(C)c4ccccc43)ccc2-c2nn[nH]n2)cc1)[C@H](C(=O)O)C(C)C [Example 450] | 23.1% | 479 nM | 5260 nM | 77.6% | 308 nM |  | > 100000 nM |
| CCCCC1=NC2(CCCC2)C(=O)N1Cc1ccc(-c2cc(Oc3ccccc3)ccc2-c2nnn[nH]2)cc1 [Example 454, 2-Butyl-3-((5′-phenoxy-2′-(1H-tetrazol-5-yl)-[1,1′-biphenyl]-4-yl)methyl)-1,3-diazaspiro[4.4]non-1-en-4-one] | 11.2% | 22.7 nM | > 100000 nM | 18.4% | 56.2 nM |  |  |
| CCCCc1ncc(C(=O)N(C)C)n1Cc1ccc(-c2cc(-c3ccccc3)ccc2-c2nn[nH]n2)cc1 [Example 383, 1-((6′-(2H-tetrazol-5-yl)-[1,1′:3′,1″-terphenyl]-4-yl)methyl)-2-butyl-N,N-dimethyl-1H-imidazole-5-carboxamide] |  | 70.4 nM | 7740 nM | 66.3% | 309 nM | 22.8% |  |
| CCOc1nc2cccc(C(=O)O)c2n1Cc1ccc(-c2cc(-c3ccc(C(=O)N(C)C)cc3)ccc2-c2noc(=O)[nH]2)cc1 [Example 321] |  | 56.8 nM | 47.9 nM | 86.7% | 108 nM | 83.4% |  |
| CCCCc1nc(Cl)c(C(=O)O)n1Cc1ccc(-c2cc(N3CC(C)(C)c4ccccc43)ccc2-c2noc(=O)[nH]2)cc1 [Example 405, 2-butyl-4-chloro-1-((5′-(3,3-dimethylindolin-1-yl)-2′-(5-oxo-4,5-dihydro-1,2,4-oxadiazol-3-yl)-[1,1′-biphenyl]-4-yl)methyl)-1H-imidazole-5-carboxylic acid] |  | 57.5 nM | 492 nM | 95.8% | 42 nM | 32.8% |  |
| CCCc1nc(CC)c(C(=O)NCC(F)(F)F)n1Cc1ccc(-c2cc(-c3ccccc3)ccc2-c2nn[nH]n2)cc1 [Example 397, 1-((6′-(2H-tetrazol-5-yl)-[1,1′:3′,1″-terphenyl]-4-yl)methyl)-4-ethyl-2-propyl-N-(2,2,2-trifluoroethyl)-1H-imidazole-5-carboxamide] |  | 78.2 nM | 124 nM | 87.9% | 80.9 nM | 46.5% |  |
| CCCCc1ncc(C(=O)NCCC(C)C)n1Cc1ccc(-c2cc(-c3ccccc3)ccc2-c2nn[nH]n2)cc1 [Example 366] |  | 11.1 nM | 42.9 nM | 78.7% | 27.4 nM | 37.0% |  |
| CCCCc1ncc(C(=O)NCCC(C)(C)O)n1Cc1ccc(-c2cc(-c3ccccc3)ccc2-c2nn[nH]n2)cc1 [Example 350] |  | 8.3 nM | 25.3 nM | 94.3% | 15.6 nM | 47.0% |  |
| CCCCc1ncc(C(=O)NCC(C)(C)COC)n1Cc1ccc(-c2cc(-c3ccccc3)ccc2-c2nn[nH]n2)cc1 [Example 360] |  | 29.2 nM | > 100000 nM | 75.0% | 35.1 nM | 37.2% |  |
| CCCCC(=O)N(Cc1ccc(-c2cc(-c3ccccc3)ccc2-c2nn[nH]n2)cc1)C1(C(=O)O)CCCCCC1 [Example 277] |  | 36.1 nM | > 100000 nM | 79.4% | 28.9 nM | 46.0% |  |
| CCCCc1ncc(C(=O)N2CCCCC2)n1Cc1ccc(-c2cc(-c3ccccc3)ccc2-c2nn[nH]n2)cc1 [Example 378] |  | 107 nM | 688 nM | 26.3% | 238 nM | 15.7% |  |
